# Where two headings read alike, the source gives them in different places.
# Experiments:
# KAT2A = KAT2A (Homo sapiens (Human), UniProt Q92830); test: KAT2A acetyltransferase biochemical assay (RapidFire mass spectrometry, AcCoA to CoA)
# H3K9AC (HT1080 cells) = test: H3K9AC Sandwich ELISA Assay in HT1080 cells (KAT2A primary cell-based screening assay); set-up: species or system Human
# Summary of the method: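 Acetylated H3K9 quantified by luminescent sandwich ELISA (total H3 capture, H3K9ac detection) on HCl lysates of HT1080 cells. Cells had 24 h compound exposure at 37 °C, top concentration 10 µM, 10-point 3-fold series, 0.1% DMSO; IC50 from four-parameter fitting.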
# KAT2B = KAT2B (Homo sapiens (Human), UniProt Q92831); test: KAT2B acetyltransferase biochemical assay (RapidFire mass spectrometry, AcCoA to CoA)
# MM.1S cells = test: MM1.S 10 Day Proliferation Assay (CellTiter-Glo); type: cell-based, Human
# Summary of the method: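 MM.1S cells, 500/well in ultra-low-attachment plates, were pre-incubated 16 h, then exposed to a 10-point 1:3 dilution series (top 10 μM final, 0.1% DMSO) for 10 days at 37 °C, with compound-containing medium refreshed at day 5. Viability was read by CellTiter-Glo luminescence; IC50 came from four-parameter fit.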
# [1] = read-out: KAT2A Ki at 1 μM AcCoA, 5 μM H3 1-21 peptide, 0.5 nM KAT2A, 90-minute reaction
# [2] = Homo sapiens, HT-1080, H3K9AC sandwich ELISA
# [3] = read-out: KAT2B Ki at 1 μM AcCoA, 1 μM AcCoA, 5 μM H3 1-21 peptide, 0.5 nM KAT2B, 90-minute reaction
# Sequence of KAT2A (Q92830 whole entry): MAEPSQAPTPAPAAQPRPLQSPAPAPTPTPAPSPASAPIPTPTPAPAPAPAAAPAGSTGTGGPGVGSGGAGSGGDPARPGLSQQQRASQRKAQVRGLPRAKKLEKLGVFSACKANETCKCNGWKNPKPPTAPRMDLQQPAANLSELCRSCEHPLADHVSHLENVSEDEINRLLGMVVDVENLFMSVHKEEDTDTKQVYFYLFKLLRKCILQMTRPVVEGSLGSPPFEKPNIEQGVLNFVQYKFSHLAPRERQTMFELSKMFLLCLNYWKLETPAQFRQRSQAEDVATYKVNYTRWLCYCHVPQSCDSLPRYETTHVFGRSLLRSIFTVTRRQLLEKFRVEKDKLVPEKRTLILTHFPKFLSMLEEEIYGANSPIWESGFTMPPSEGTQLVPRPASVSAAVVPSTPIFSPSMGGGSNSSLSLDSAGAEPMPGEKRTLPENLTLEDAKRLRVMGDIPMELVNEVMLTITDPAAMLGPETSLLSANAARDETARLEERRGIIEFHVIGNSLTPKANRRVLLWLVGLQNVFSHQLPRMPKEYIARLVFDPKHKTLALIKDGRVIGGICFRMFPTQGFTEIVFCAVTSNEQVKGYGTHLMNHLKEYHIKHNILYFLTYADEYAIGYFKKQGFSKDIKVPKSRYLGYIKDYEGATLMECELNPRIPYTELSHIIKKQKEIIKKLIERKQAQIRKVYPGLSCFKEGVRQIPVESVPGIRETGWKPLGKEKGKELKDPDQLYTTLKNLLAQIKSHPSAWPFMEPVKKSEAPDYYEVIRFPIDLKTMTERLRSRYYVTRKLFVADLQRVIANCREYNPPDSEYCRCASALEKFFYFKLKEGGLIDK
# Sequence of KAT2B (Q92831 2-832): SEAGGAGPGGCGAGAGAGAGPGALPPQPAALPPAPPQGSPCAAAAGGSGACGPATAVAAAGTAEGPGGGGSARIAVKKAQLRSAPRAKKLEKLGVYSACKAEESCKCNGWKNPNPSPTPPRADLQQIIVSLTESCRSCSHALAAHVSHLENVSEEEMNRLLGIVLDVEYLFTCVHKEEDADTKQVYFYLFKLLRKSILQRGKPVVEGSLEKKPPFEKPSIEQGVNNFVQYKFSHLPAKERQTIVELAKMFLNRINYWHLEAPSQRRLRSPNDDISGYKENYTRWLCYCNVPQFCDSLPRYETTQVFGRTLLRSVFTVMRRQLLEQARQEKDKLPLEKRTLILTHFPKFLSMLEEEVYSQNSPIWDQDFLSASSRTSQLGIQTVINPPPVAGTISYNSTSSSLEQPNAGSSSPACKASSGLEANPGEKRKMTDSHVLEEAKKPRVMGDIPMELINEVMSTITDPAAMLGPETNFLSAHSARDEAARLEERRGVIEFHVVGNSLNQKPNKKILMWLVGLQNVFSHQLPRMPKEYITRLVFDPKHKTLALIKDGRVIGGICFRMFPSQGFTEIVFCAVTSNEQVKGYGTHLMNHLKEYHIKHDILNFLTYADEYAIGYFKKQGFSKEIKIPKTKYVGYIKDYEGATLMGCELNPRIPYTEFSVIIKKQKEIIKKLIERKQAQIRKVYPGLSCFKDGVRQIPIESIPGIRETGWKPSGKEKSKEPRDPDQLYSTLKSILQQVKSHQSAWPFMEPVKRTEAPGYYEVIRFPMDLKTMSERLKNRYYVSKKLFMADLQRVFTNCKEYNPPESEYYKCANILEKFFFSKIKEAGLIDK
SMILES,Ki (KAT2A; [1]) [nM],IC50 (H3K9AC (HT1080 cells); [2]) [nM],Ki (KAT2B; [3]) [nM],"IC50 (MM.1S cells; Homo sapiens, MM1.S, 240 h) [nM]","Ki (KAT2A; KAT2A Ki at 1 μM AcCoA, 5 μM H3 1-21 peptide, 0.5 nM KAT2A, 90-minute reaction) [nM]",IC50 (H3K9AC (HT1080 cells); H3K9AC sandwich ELISA) [nM],Ki (KAT2B) [nM],IC50 (MM.1S cells) [nM]
"CC(C)S(=O)(=O)NC(=O)C(C)(C)c1ccc(O[C@@H]2CC[C@@H](NC(=O)[C@]3(F)CNC4(CCC4)C3)C2)c(-c2cccc(F)c2C2CCC2)c1 (single isomer, unassigned) [Example B4]",0.14,3.12,0.15,8.38,,,,
"CCS(=O)(=O)NC(=O)C(C)(C)c1ccc(O[C@@H]2CC[C@@H](NC(=O)C3(F)CNC4(CCC4)C3)C2)c(-c2cccc(F)c2C2CCC2)c1 (single isomer, unassigned) [Example B2]",,,,7.51,0.13,3.14,0.13,
"CCS(=O)(=O)NC(=O)C(C)(C)c1ccc(O[C@@H]2CC[C@@H](NC(=O)[C@@]3(F)CNC(C)(C)C3)C2)c(-c2cccc(F)c2C2CCC2)c1 (single isomer, unassigned) [Example B13]",0.14,,0.35,,,1.96,,38.8
"CC1(C)CNC[C@](F)(C(=O)N[C@@H]2CC[C@@H](Oc3ccc(C(C)(C)C(=O)O)cc3-c3cccc(F)c3C3CCC3)C2)C1 (single isomer, unassigned) [Example A16]",1.39,,2.43,144,,13.4,,
"CC1(C)CNCC(F)(C(=O)N[C@@H]2CC[C@@H](Oc3ccc(C(C)(C)C(=O)NS(=O)(=O)C4CC4)cc3-c3cccc(F)c3C3CCC3)C2)C1 (single isomer, unassigned) [Example B28]",0.14,2.7,0.19,5,,,,
"CC1(C)CNC[C@](F)(C(=O)N[C@@H]2CC[C@@H](Oc3ccc(CC(=O)O)cc3-c3cccc(F)c3C3CCC3)C2)C1 (single isomer, unassigned) [Example A23]",0.57,6.36,2.85,60,,,,
"CC(C)(C(=O)O)c1ccc(O[C@@H]2CC[C@@H](NC(=O)[C@]3(F)CNC4(CCCC4)C3)C2)c(-c2cccc(F)c2C2CCC2)c1 (single isomer, unassigned) [Example A6]",0.54,7.67,1.21,92.4,,,,
"CCS(=O)(=O)NC(=O)C(C)(C)c1ccc(O[C@@H]2CC[C@@H](NC(=O)[C@@]3(F)CNC4(CCCC4)C3)C2)c(-c2cccc(F)c2C2CCC2)c1 (single isomer, unassigned) [Example B20]",0.05,0.93,0.06,1.76,,,,

# Results, then the compound that gave them:
Ki (KAT2A; [1]) [nM],IC50 (H3K9AC (HT1080 cells); [2]) [nM],Ki (KAT2B; [3]) [nM],"IC50 (MM.1S cells; Homo sapiens, MM1.S, 240 h) [nM]","Ki (KAT2A; KAT2A Ki at 1 μM AcCoA, 5 μM H3 1-21 peptide, 0.5 nM KAT2A, 90-minute reaction) [nM]",IC50 (H3K9AC (HT1080 cells); H3K9AC sandwich ELISA) [nM],Ki (KAT2B) [nM],IC50 (MM.1S cells) [nM],SMILES
0.07,5.79,0.04,17.5,,,,,"CC1(C)C[C@@](F)(C(=O)N[C@@H]2CC[C@@H](Oc3ccc(C(C)(C)C(=O)NS(=O)(=O)N4CCC4)cc3-c3cccc(F)c3C3CCC3)C2)CN1 (single isomer, unassigned) [Example C7]"
0.06,6.96,0.17,13.7,,,,,"CN(C)S(=O)(=O)NC(=O)C(C)(C)c1ccc(O[C@@H]2CC[C@@H](NC(=O)[C@@]3(F)CNC(C)(C)C3)C2)c(-c2cccc(F)c2C2CCC2)c1 (single isomer, unassigned) [Example C9]"
1.41,17.7,5.62,63.7,,,,,"CC(C)(C(=O)NS(C)(=O)=O)c1ccc(O[C@@H]2CC[C@@H](NC(=O)[C@]3(F)CNC4(CCC4)C3)C2)c(-c2cccc(F)c2C2CC2)c1 (single isomer, unassigned) [Example C14]"
0.12,,0.8,,,5.06,,66.7,"CC(C)c1c(F)cccc1-c1cc(C(C)(C)C(=O)NS(C)(=O)=O)ccc1O[C@@H]1CC[C@@H](NC(=O)[C@@]2(F)CNC3(CCC3)C2)C1 (single isomer, unassigned) [Example C19]"
0.14,1.86,0.47,7.11,,,,,"CCc1c(F)cccc1-c1cc(C(C)(C)C(=O)NS(=O)(=O)C(C)C)ccc1O[C@@H]1CC[C@@H](NC(=O)[C@@]2(F)CNC3(CCCC3)C2)C1 (single isomer, unassigned) [Example C29]"
0.5,11,0.93,89.6,,,,,"CCc1c(F)cccc1-c1cc(C(C)(C)C(=O)NS(C)(=O)=O)ccc1O[C@@H]1CC[C@@H](NC(=O)[C@]2(F)CNC3(CCC3)C2)C1 (single isomer, unassigned) [Example C12]"
0.08,8.38,0.21,15.9,,,,,"CN1CC(C)(C)C[C@H]1C(=O)N[C@@H]1CC[C@@H](Oc2ccc(C(C)(C)C(=O)NS(=O)(=O)N(C)C)cc2-c2cccc(F)c2C2CCC2)C1 [Example E4, N-{(1R,3R)-3-[(2′-cyclobutyl-5-{1-[(dimethylsulfamoyl)amino]-2-methyl-1-oxopropan-2-yl}-3′-fluoro[1,1′-biphenyl]-2-yl)oxy]cyclopentyl}-1,4,4-trimethyl-L-prolinamide]"
0.16,2.62,0.53,12.8,,,,,"CCc1c(F)cccc1-c1cc(C(C)(C)C(=O)NS(C)(=O)=O)ccc1O[C@@H]1CC[C@@H](NC(=O)[C@@]2(F)CNC3(CCCC3)C2)C1 (single isomer, unassigned) [Example C27]"
0.14,,0.55,,,1.71,,9.29,"CCc1c(F)cccc1-c1cc(C(C)(C)C(=O)NS(=O)(=O)CC)ccc1O[C@@H]1CC[C@@H](NC(=O)[C@@]2(F)CNC3(CCCC3)C2)C1 (single isomer, unassigned) [Example C25]"
0.26,,0.46,20.6,,3.88,,,"Cn1cc(-c2ccc(O[C@@H]3CC[C@@H](NC(=O)[C@]4(F)CNC5(CCC5)C4)C3)c(-c3cccc(F)c3C3CCC3)c2)c(C(C)(C)C(=O)O)n1 (single isomer, unassigned) [Example J7]"
18.3,57.2,32.9,219,,,,,"CN1CC(C)(C)C[C@H]1C(=O)N[C@@H]1CC[C@@H](Oc2cccc(C(=O)O)c2-c2cccc(F)c2C2CCC2)C1 (atropisomer, axis not shown) [Example H3, (1ψ)-2′-cyclobutyl-3′-fluoro-6-({(1R,3R)-3-[(1,4,4-trimethyl-L-prolyl)amino]cyclopentyl}oxy)[1,1′-biphenyl]-2-carboxylic acid]"
0.17,10.2,0.18,12.6,,,,,"CC1(C)C[C@@](F)(C(=O)N[C@@H]2CC[C@@H](Oc3ccc(C(C)(C)C(=O)NS(C)(=O)=O)cc3-c3cccc(F)c3C3CCC3)C2)CN1 (single isomer, unassigned) [Example C5]"
0.09,,0.11,13.7,,1.11,,,"CC(C)(C(=O)NS(=O)(=O)C1(C)CC1)c1ccc(O[C@@H]2CC[C@@H](NC(=O)[C@@]3(F)CNC4(CCC4)C3)C2)c(-c2cccc(F)c2C2CC2)c1 (single isomer, unassigned) [Example C21]"
0.19,4.29,0.56,15.9,,,,,"CN1CC(C)(C)C[C@H]1C(=O)N[C@H]1C[C@H](Oc2ccc(C(=O)O)cc2-c2cccc(F)c2C2CCC2)C[C@H]1O (single isomer, unassigned) [Example K3, 2′-cyclobutyl-3′-fluoro-6-({(1ξ,3ξ,4ξ)-3-hydroxy-4-[(1,4,4-trimethyl-L-prolyl)amino]cyclopentyl}oxy)[1,1′-biphenyl]-3-carboxylic acid]"
0.26,,0.14,,,1.25,,5.49,"CC(C)(C(=O)NS(C)(=O)=O)c1ccc(O[C@@H]2CC[C@@H](NC(=O)[C@@]3(F)CNC4(CCCC4)C3)C2)c(-c2cccc(F)c2C2CCC2)c1 (single isomer, unassigned) [Example C4]"
0.08,,0.06,,,23.2,,81.8,"CC(C)(C(=O)NS(C)(=O)=O)c1ccc(O[C@@H]2CC[C@@H](NC(=O)[C@@]3(F)CNC4(CCCC4)C3)C2)c(-c2cccc(F)c2C2CCC2)c1 (single isomer, unassigned) [Example C16]"
0.7,4.56,0.94,45.6,,,,,"CN1CC(C)(C)C[C@H]1C(=O)N[C@H]1C[C@H](Oc2ccc(CC(=O)O)cc2-c2cccc(F)c2C2CCC2)C[C@H]1O [Example K4, [2′-cyclobutyl-3′-fluoro-6-({(1S,3R,4S)-3-hydroxy-4-[(1,4,4-trimethyl-L-prolyl)amino]cyclopentyl}oxy)[1,1′-biphenyl]-3-yl]acetic acid]"
0.34,2.77,0.22,9.83,,,,,"CCc1c(F)cccc1-c1cc(C(C)(C)C(=O)NS(=O)(=O)CC)ccc1O[C@@H]1CC[C@@H](NC(=O)[C@@]2(F)CNC3(CCCC3)C2)C1 (single isomer, unassigned) [Example C24]"
